Laboratory results from ChEMBL document CHEMBL3124761, “Synthesis and biological evaluation of N,N'-squaramides with high in vivo efficacy and low toxicity: toward a low-cost drug against Chagas disease” (J Med Chem, 2014).
Activity calls are given as the source filed them. The calls are words filed in the database; no cut-off is given here.

Key:
[1] = Selectivity index, ratio of IC50 for African green monkey Vero cells to IC50 for amastigote stage of Trypanosoma cruzi IRHOD/CO/2008/SN3 infected in African green monkey Vero cells; format: toxicity, cell-based; conditions: read-out: Ratio IC50
[2] = Selectivity index, ratio of IC50 for African green monkey Vero cells to IC50 for epimastigote stage of Trypanosoma cruzi IRHOD/CO/2008/SN3; format: toxicity, cell-based; conditions: read-out: Ratio IC50
[3] = tested on: Vero; experiment: Cytotoxicity against African green monkey Vero cells assessed as cell viability after 72 hrs by propidium iodide/fluorescein diacetate staining-based flow cytometric analysis; conditions: Chlorocebus sabaeus
[4] = tested on: Trypanosoma cruzi; experiment: Antitrypanosomal activity against amastigote stage of Trypanosoma cruzi IRHOD/CO/2008/SN3 infected in African green monkey Vero cells assessed as parasite growth inhibition after 72 hrs by Giemsa staining-based microscopic analysis; format: functional, organism-based; conditions: IRHOD/CO/2008/SN3, Vero
[5] = tested on: Trypanosoma cruzi; experiment: Antitrypanosomal activity against epimastigote stage of Trypanosoma cruzi IRHOD/CO/2008/SN3 assessed as parasite growth inhibition after 72 hrs by Neubauer hemocytometric chamber analysis; format: functional, organism-based; conditions: IRHOD/CO/2008/SN3, 72 h
[6] = tested on: Mus musculus; experiment: Toxicity in BALB/c albino mouse infected with blood trypomastigote stage of Trypanosoma cruzi assessed as change in alkaline phosphatase level in serum at 25 mg/kg, ip administered on day 7 to 12 post-infection measured after day 120 relative to control; format: organism-based; set-up: dose 25 mg/kg, route intraperitoneal; conditions: in vivo
[7] = tested on: Mus musculus; experiment: Toxicity in BALB/c albino mouse infected with blood trypomastigote stage of Trypanosoma cruzi assessed as change in ALT/GPT level in serum at 25 mg/kg, ip administered on day 7 to 12 post-infection measured after day 120 relative to control; format: organism-based; set-up: dose 25 mg/kg, route intraperitoneal; conditions: in vivo
[8] = tested on: Mus musculus; experiment: Toxicity in BALB/c albino mouse infected with blood trypomastigote stage of Trypanosoma cruzi assessed as increase in AST/GOT level in serum at 25 mg/kg, ip administered on day 7 to 12 post-infection measured after day 120 relative to control; format: organism-based; set-up: dose 25 mg/kg, route intraperitoneal; conditions: in vivo
[9] = tested on: Mus musculus; experiment: Toxicity in BALB/c albino mouse infected with blood trypomastigote stage of Trypanosoma cruzi assessed as change in total bilirubin level in serum at 25 mg/kg, ip administered on day 7 to 12 post-infection measured after day 120 relative to control; format: organism-based; set-up: dose 25 mg/kg, route intraperitoneal; conditions: in vivo
[10] = tested on: Mus musculus; experiment: Toxicity in BALB/c albino mouse infected with blood trypomastigote stage of Trypanosoma cruzi assessed as change in LDH level in serum at 25 mg/kg, ip administered on day 7 to 12 post-infection measured after day 120 relative to control; format: organism-based; set-up: dose 25 mg/kg, route intraperitoneal; conditions: in vivo
[11] = tested on: Mus musculus; experiment: Toxicity in BALB/c albino mouse infected with blood trypomastigote stage of Trypanosoma cruzi assessed as increase in creatinephophokinase-MB level in serum at 25 mg/kg, ip administered on day 7 to 12 post-infection measured after day 120 relative to control; format: organism-based; set-up: dose 25 mg/kg, route intraperitoneal; conditions: in vivo
[12] = tested on: Mus musculus; experiment: Toxicity in BALB/c albino mouse infected with blood trypomastigote stage of Trypanosoma cruzi assessed as increase in uric acid level in serum at 25 mg/kg, ip administered on day 7 to 12 post-infection measured after day 120 relative to control; format: organism-based; set-up: dose 25 mg/kg, route intraperitoneal; conditions: in vivo
[13] = tested on: Mus musculus; experiment: Toxicity in BALB/c albino mouse infected with blood trypomastigote stage of Trypanosoma cruzi assessed as change in urea level in serum at 25 mg/kg, ip administered on day 7 to 12 post-infection measured after day 120 relative to control; format: organism-based; set-up: dose 25 mg/kg, route intraperitoneal; conditions: in vivo
[14] = tested on: Trypanosoma cruzi; experiment: Trypanocidal activity against metacyclic trypomastigote stage of Trypanosoma cruzi infected in BALB/c albino mouse acute chagas disease model assessed as inhibition of parasitemia at 25 mg/kg, ip administered on day 7 to 12 post-infection measured every 2 days until day 40 […] relative to control; format: functional; conditions: route intraperitoneal
[15] = tested on: Trypanosoma cruzi; experiment: Trypanocidal activity against metacyclic trypomastigote stage of Trypanosoma cruzi infected in BALB/c albino mouse acute chagas disease model assessed as reduction of parasite burden at 25 mg/kg, ip administered on day 7 to 12 post-infection measured on day 14 by ELISA; format: functional, organism-based; set-up: dose 25 mg/kg
[16] = tested on: Mus musculus; experiment: Toxicity in BALB/c albino mouse assessed as mortality at 25 mg/kg, ip administered for 5 days; format: organism-based; set-up: dose 25 mg/kg, route intraperitoneal; conditions: in vivo, 120 h
[17] = tested on: Trypanosoma cruzi; experiment: (§1) Antitrypanosomal activity against trypomastigote stage of Trypanosoma cruzi IRHOD/CO/2008/SN3 assessed as reduction of trypomastigote number per mililiter of culture medium at IC25 preincubated for 12 hrs followed by compound washout measured every 48 hrs for 10 days by Neubauer hemocytometric chamber analysis relative to control; format: functional
[18] = tested on: Trypanosoma cruzi; experiment: as §1, with “amastigote” for “trypomastigote”, “IRHOD/CO/2008/SN3 infected in African green monkey Vero cells” for “IRHOD/CO/2008/SN3”, “cell” for “mililiter of culture medium”; format: functional
[19] = tested on: Trypanosoma cruzi; experiment: Antitrypanosomal activity against amastigote stage of Trypanosoma cruzi IRHOD/CO/2008/SN3 infected in African green monkey Vero cells assessed as decrease in infection rate at IC25 preincubated for 12 hrs followed by compound washout measured every 48 hrs for 10 days by Neubauer hemocytometric chamber analysis relative to control; format: functional
[20] = tested on: Trypanosoma cruzi; experiment: Antitrypanosomal activity against epimastigote stage of Trypanosoma cruzi IRHOD/CO/2008/SN3 assessed as mortality at IC25 after 72 hrs by TEM analysis; format: functional, organism-based
[21] = tested on: Trypanosoma cruzi; experiment: Antitrypanosomal activity against epimastigote stage of Trypanosoma cruzi IRHOD/CO/2008/SN3 assessed as formation of electron-dense vacuoles at IC25 after 72 hrs by TEM analysis; format: functional, organism-based
[22] = tested on: Trypanosoma cruzi; experiment: Antitrypanosomal activity against epimastigote stage of Trypanosoma cruzi IRHOD/CO/2008/SN3 assessed as appearance of enormous reservosomes at IC25 after 72 hrs by TEM analysis; format: functional, organism-based
[23] = tested on: Trypanosoma cruzi; experiment: Antitrypanosomal activity against epimastigote stage of Trypanosoma cruzi IRHOD/CO/2008/SN3 assessed as appearance of swollen structure filled with empty vacuoles at IC25 after 72 hrs by TEM analysis; format: functional, organism-based
[24] = tested on: Trypanosoma cruzi; experiment: Antitrypanosomal activity against epimastigote stage of Trypanosoma cruzi IRHOD/CO/2008/SN3 assessed as change in excreted succinate level at IC25 after 96 hrs by 1H NMR analysis relative to control; format: functional
[25] = tested on: Trypanosoma cruzi; experiment: Antitrypanosomal activity against epimastigote stage of Trypanosoma cruzi IRHOD/CO/2008/SN3 assessed as change in excreted pyruvate level at IC25 after 96 hrs by 1H NMR analysis relative to control; format: functional
[26] = tested on: Trypanosoma cruzi; experiment: Antitrypanosomal activity against epimastigote stage of Trypanosoma cruzi IRHOD/CO/2008/SN3 assessed as change in excreted acetate level at IC25 after 96 hrs by 1H NMR analysis relative to control; format: functional
[27] = tested on: Trypanosoma cruzi; experiment: Antitrypanosomal activity against epimastigote stage of Trypanosoma cruzi IRHOD/CO/2008/SN3 assessed as change in excreted alanine level at IC25 after 96 hrs by 1H NMR analysis relative to control; format: functional
[28] = tested on: Trypanosoma cruzi; experiment: Antitrypanosomal activity against epimastigote stage of Trypanosoma cruzi IRHOD/CO/2008/SN3 assessed as change in excreted lactate level at IC25 after 96 hrs by 1H NMR analysis relative to control; format: functional

## CCCCNc1c(NCC[N+](C)(C)C)c(=O)c1=O
[1]
  selectivity ratio: 1.5
[2]
  selectivity ratio: 0.5
[3]
  IC50: 57.6 µM
[4]
  IC50: 38.5 µM
[5]
  IC50: 107 µM

## NCc1ccc(Nc2c(O)c(=O)c2=O)cc1
[1]
  selectivity ratio: 0.5
[2]
  selectivity ratio: 0.4
[3]
  IC50: 36.6 µM
[4]
  IC50: 72.6 µM
[5]
  IC50: 89.1 µM

## CN(CCCNc1c(NCCC[N+](C)(C)C)c(=O)c1=O)CCCNc1c(NCCC[N+](C)(C)C)c(=O)c1=O.[I-].[I-]
[6]
  Activity: < 10%
[7]
  Activity: < 10%
[8]
  Activity: 40%
[9]
  Activity: < 10%
[10]
  Activity: < 10%
[11]
  Activity: 30%
[12]
  Activity: 30%
[13]
  Activity: < 10%
[14]
  inhibition in vivo at 25 mg/kg: 37%
[15]
  Activity: Active
[16]
  Activity: Non-toxic
[17]
  inhibition (INH): 49%
[18]
  inhibition (INH): 30%
[19]
  inhibition (INH): 30%
[1]
  selectivity ratio: 17.5
[2]
  selectivity ratio: 16.2
[3]
  IC50: 301 µM
[4]
  IC50: 17.1 µM
[5]
  IC50: 18.5 µM
[20]
  Activity: Active
[21]
  Activity: Active
[22]
  Activity: Active
[23]
  Activity: Active
[24]
  Activity: -21.2%
[25]
  Activity: 37.4%
[26]
  Activity: -12%
[27]
  Activity: -13.3%
[28]
  Activity: -20.6%

## CN1CCCNc2c(c(=O)c2=O)NCCCN(C)CCCNc2c(c(=O)c2=O)NCCC1
[1]
  selectivity ratio: 3.5
[2]
  selectivity ratio: 5.1
[3]
  IC50: 111 µM
[4]
  IC50: 31.2 µM
[5]
  IC50: 21.8 µM

## CCCCCCCCCCCCCCCCNc1c(NCC[N+](C)(C)C)c(=O)c1=O
[1]
  selectivity ratio: 5.7
[2]
  selectivity ratio: 3.4
[3]
  IC50: 151 µM
[4]
  IC50: 26.3 µM
[5]
  IC50: 44.9 µM

## O=c1c(NCc2ccccc2)c(NC2CCN(Cc3ccccc3)CC2)c1=O
[1]
  selectivity ratio: 9.7
[2]
  selectivity ratio: 3.5
[3]
  IC50: 338 µM
[4]
  IC50: 34.7 µM
[5]
  IC50: 96.9 µM

## CCCCNc1c(NCC(=O)O)c(=O)c1=O
[1]
  selectivity ratio: 2.3
[2]
  selectivity ratio: 1.5
[3]
  IC50: 54.8 µM
[4]
  IC50: 23.8 µM
[5]
  IC50: 35.7 µM

## O=c1c(O)c(Nc2ccccc2O)c1=O
[1]
  selectivity ratio: 5.2
[2]
  selectivity ratio: 4.5
[3]
  IC50: 228 µM
[4]
  IC50: 44 µM
[5]
  IC50: 50.8 µM

## CN(C)c1ccc(Nc2c(O)c(=O)c2=O)cc1
[1]
  selectivity ratio: 1.3
[2]
  selectivity ratio: 0.8
[3]
  IC50: 12.9 µM
[4]
  IC50: 10.1 µM
[5]
  IC50: 15.9 µM
